Results taken from patent publication US11597936B2, “Recombinant Dgkk gene for fragile X syndrome gene therapy” (UNIVERSITE DE STRASBOURG, priority 2016, dated 2023).

How the values were obtained:
Cos-1 cells = experiment: Western blot (anti-HA) of Dgkk constructs in Cos-1 cells, siFmr1 versus siRNA control; format: cell-based; conditions: siFmr1 vs siCtrl, HA signal normalized to GAPDH
Description: COS cells (ATCC® CRL-1650™) were grown in DMEM supplemented with 10% fetal calf serum, 1 g/l glucose in the presence of antibiotics at 37° C. in 5% CO2. The day before transfection, 4×10^4 cells were plated into 24-well format plates in 500 μl of antibiotic-free medium.
Transfections of sh-RNAs were performed in triplicate with Lipofectamine 2000 (Invitrogen, Carlsbad, Calif.) on 60 000 cells as directed by the manufacturer with 20 pmol of siRNA (Control or On Target plus Smart Pool mouse FMR1, Thermo) in a final volume of 600 μl. Twenty-four hours later, 0.6 μg of a plasmid construction and 20 pmol of shRNA were co-transfected as above. Fourty-eight hours later, cells washed twice in PBS were lysed directly in the loading buffer (100 mM Tris-HCl, pH 6.8, 4% SDS, 30% glycerol, 1.4 M ß-mercaptoethanol, and bromophenol blue) for 3 min at 95° C. Proteins were analyzed on a 10% SDS-polyacrylamide gel and immunoblotted onto PVDF (Millipore) in Tris-glycine-SDS/20% ethanol buffer for 1 h at 200 mA. […]
In a second series of experiments, the inventors aimed to determine which part of the 5′ region of Dgkk is important in the control of Dgkk expression by FMRP. […] Then, as previously described, Cos-1 cells were transfected by these constructs in the presence or absence of Fmr1 siRNA and the expression of the constructs was analyzed by western-blot.

CA1 pyramidal neurons = experiment: Dendritic spine morphology and dynamics in hippocampal organotypic slice cultures; format: cell-based, mouse
Source text: A short hairpin RNA designed to target Dgkk (shRNA Dgkk, 5′-[…], SEQ ID No: 6) and the selected shRNA-scramble sequence (5′-[…], SEQ ID No: 7) that has no match in silico in the mouse genome, were cloned under the control of the mU6 promoter into a pAAV-MCS derived plasmid expressing enhanced green fluorescent protein (EGFP) under the control of a CMV promoter. Overexpression of Dgkk was achieved by cloning HA-tagged Δ5′reg-Dgkk under the control of the human Synapsin-1 gene promoter replacing EGFP in the control plasmid pENN.AAV.hSynapsin1.EGFP.RBG (provided by the Penn Vector Core at University of Pennsylvania). Recombinant adeno-associated virus serotype 9 (AAV9) co-expressing EGFP and shRNA (AAV9-EGFP-shRNA-Dgkk and control AAV9-EGFP-shRNA-scramble) as well as AAV9 expressing HA-Dgkk or EGFP (AAV9-hSynapsin1-HA-Dgkk and control AAV9-hSynapsin1-EGFP) were generated. AAV production was carried out using the AAV Helper-Free system (Agilent Technologies) with some modifications. AAV9 vectors were generated by triple transfection of 293T/17 cell line using either pAAV-EGFP-shRNA-Dgkk or pAAV-EGFP-shRNA-scramble, pAAV-hSynapsin1-HA-Δ5′reg-Dgkk or pENN.AAV.hSynapsin1.EGFP.RBG together with pAAV2/9 (Penn Vector Core) containing cap genes of AAV serotype 9 and pHelper. Two days after transfection, cells were collected, lysed by three freeze/thaw cycles in dry ice-ethanol and 37° C. baths, further treated with 100 U/ml Benzonase (Novagen) for 30 min at 37° C. and clarified by centrifugation. Viral vectors were purified by iodixanol (Optiprep™, Axis Shield) gradient ultracentrifugation followed by dialysis and concentration against PBS containing 0.5 mM MgCl2 using centrifugal filters (Amicon Ultra-15 100 K). Viral particles were quantified by real time PCR using a linearized standard plasmid pAAV-EGFP.
Hippocampal organotypic slice cultures (400 μm thick) were prepared from postnatal 5-6 day old C57BL/6 Fmr1+/y or its Fmr1−/y littermate mice using a protocol approved by the Geneva veterinary office and maintained under culture conditions as described (De Roo M et al, 2008, Cereb Cortex, 18(1):151-161). Transfection was carried out at DIV7 with a biolistic method (Helios Gene Gun, Bio-Rad) using gold beads coated with mRFP and either pAAV-EGFP-shRNA-Dgkk, pAAV-EGFP-shRNA-scramble, pAAV-hSynapsin1-EGFP or pAAV-hSynapsin1-HA-[…]. Repetitive confocal imaging was performed as previously described (De Roo M et al, 2008, Cereb Cortex, 18(1):151-161). Briefly, dendritic segments of CA1 transfected neurons (30-40 μm in length) were imaged from DIV12 to DIV15 (at 0, 5, 24, 48 and 72 hours) using an Olympus Fluoview 300 system and analysis of the Z-stacked images so obtained was performed using Osirix software.

[1] = versus shRNA-scramble transfected cells

Row | Substance | reduction of the expression level of the construct when FMRP expression is reduced (Cos-1 cells) | spine density (CA1 pyramidal neurons; CA1 pyramidal neurons, biolistic transfection) | lost spines per 24 h (CA1 pyramidal neurons; [1]) | multi-head spines (CA1 pyramidal neurons; [1]) | mushroom spines (CA1 pyramidal neurons; [1]) | new spine formation per 24 h (CA1 pyramidal neurons; [1])
1 | Dgkk-FL: plasmid carrying all mouse Dgkk exons, its 5′UTR, its 3′UTR and a HA tag (SEQ ID No: 8) | about 70% | – | – | – | – | –
2 | shRNA-Dgkk: short hairpin RNA designed to target Dgkk (SEQ ID No: 6), in pAAV plasmid expressing EGFP (guide GGAATGCACTACTGGTATTCC; shRNA hairpin expressed from pAAV-EGFP vector) | – | Absence of changes | Increase | Increase | decrease | Increase
